For series [1] the following is noted: cited from earlier work.
For series [2] the following is noted: compared with acetone solvate form (Form A); cited from earlier work.
Series [3] in a line: Storage stability of solid form (morphology and physicochemical characteristics). As to conditions: solid material obtained after solvent recovery. An excerpt:
The merit of the process according to the present invention resides in that—product obtained after recovery is obtained in non-solvated amorphous form of Cabazitaxel. Said material was found devoid of any crystal lattice and adequately stable to handle and store for longer time (at least up to more than 6 months) without any significant or measurable change in its morphology and physicochemical characteristics.

With `CO[C@H]1C(=O)[C@@]2(C)C([C@H](OC(=O)c3ccccc3)[C@]3(O)C[C@H](OC(=O)[C@H](O)[C@H](NC(=O)OC(C)(C)C)c4ccccc4)C(C)=C1C3(C)C)[C@]1(OC(C)=O)CO[C@@H]1C[C@@H]2OC` (stereo partly drawn) [Cabazitaxel, (2α,5β,7β,10β,13α)-4-acetoxy-13-({(2R,3S)-3[(tert-butoxycarbonyl)amino]-2-hydroxy-3-phenylpropanoyl}oxy)-1-hydroxy-7,10-dimethoxy-9-oxo-5,20-epoxytax-11-en-2-yl benzoate], the solubility in water entry in series [1] is reported as “practically insoluble in water”.
As to `CO[C@H]1C(=O)[C@]2(C)[C@@H](OC)C[C@H]3OC[C@@]3(OC(C)=O)[C@H]2[C@H](OC(=O)c2ccccc2)[C@]2(O)C[C@H](OC(=O)[C@H](O)[C@@H](NC(=O)OC(C)(C)C)c3ccccc3)C(C)=C1C2(C)C` [Form D anhydrous, 4-acetoxy-2α-benzoyloxy-5β,20-epoxy-1-hydroxy-7β,10β-dimethoxy-9-oxotax-11-en-13α-yl (2R,3S)-3-tert-butoxycarbonylamino-2-hydroxy-3-phenyl-propionate], in series [2], the “stability of solid form” value was “highly stable, even more stable than acetone solvate form (Form A)”.
Turning to `CO[C@H]1C(=O)[C@@]2(C)C([C@H](OC(=O)c3ccccc3)[C@]3(O)C[C@H](OC(=O)[C@H](O)[C@H](NC(=O)OC(C)(C)C)c4ccccc4)C(C)=C1C3(C)C)[C@]1(OC(C)=O)CO[C@@H]1C[C@@H]2OC` (stereo in doubt) [(2α,5β,7β,10β,13α)-4-acetoxy-13-({(2R,3S)-3[(tert-butoxy-carbonyl)amino]-2-hydroxy-3-phenylpropanoyl}oxy)-1-hydroxy-7,10-dimethoxy-9-oxo-5,20-epoxytax-11-en-2-yl benzoate], the “time handled and stored without any significant or measurable change in morphology and physicochemical characteristics” value in series [3] is “more than 6 months”.

Source of the values: US9403785B2, “Process for preparing amorphous cabazitaxel” (SHILPA MEDICARE LIMITED, priority 2012, dated 2016).
